20 compounds from ChEMBL document CHEMBL5120915, “Synthesis of Sulfur-Containing Analogues of Hedychenone, a Labdane Diterpenoid from Hedychium spicatum” (J Nat Prod, 2022) can be followed below.

SMILES strings stand for the structures. In brackets after ≈: the same amount, converted by molar mass.

Molecular target in the first test: not listed separately
The test can be described thus: Inhibition of Saccharomyces cerevisiae alpha-glucosidase using pNPG as substrate preincubated for 5 mins followed by pNPG addition and measured after 10 mins by microplate reader method.
Conditions: not given
`CC1=CC(=O)[C@H]2C(C)(C)CCC[C@]2(C)[C@H]1/C=C/c1ccoc1Sc1cccc(C)c1` came in with a half-maximal inhibitory concentration (IC50) of 9.7 µg/mL (≈ 23.1 µM). Compound `CC1=CC(=O)[C@H]2C(C)(C)CCC[C@]2(C)[C@H]1/C=C/c1ccoc1SCc1ccc(Cl)cc1` showed a half-inhibitory concentration (IC50) of 9.7 µg/mL (≈ 21.3 µM). In the case of `C[C@H]1O[C@H](O[C@H]2[C@H](O)[C@@H](O)[C@@H](O[C@H]3[C@H](O)[C@@H](O)C(O)O[C@@H]3CO)O[C@@H]2CO)[C@H](O)[C@@H](O)[C@@H]1N[C@H]1C=C(CO)[C@@H](O)[C@H](O)[C@H]1O` (stereo partly specified) [ACARBOSE], the 50% inhibitory concentration (IC50) came out at 3.95 µg/mL (≈ 6.12 µM). For the compound `CC1=CC(=O)[C@H]2C(C)(C)CCC[C@]2(C)[C@H]1/C=C/c1ccoc1SCc1ccc(F)cc1`, the IC50 was 9.7 µg/mL (≈ 22.1 µM). This IC50 is about 2.5-fold higher than that of the compound before. The same measure, in the same setting: as for `CC1=CC(=O)[C@H]2C(C)(C)CCC[C@]2(C)[C@H]1/C=C/c1ccoc1Sc1ccc2ccccc2c1`, the figure is 9.7 µg/mL (≈ 21.2 µM); as for `CC1=CC(=O)[C@H]2C(C)(C)CCC[C@]2(C)[C@H]1/C=C/c1ccoc1Sc1ccccc1Br`, 13.01 µg/mL (≈ 26.8 µM); as for `CC1=CC(=O)[C@H]2C(C)(C)CCC[C@]2(C)[C@H]1/C=C/c1ccoc1Sc1ccccc1`, 13.17 µg/mL (≈ 32.4 µM). In turn, `CC1=CC(=O)[C@H]2C(C)(C)CCC[C@]2(C)[C@H]1/C=C/c1ccoc1Sc1ccccc1Cl` came in with a half-maximal inhibitory concentration (IC50) of 9.7 µg/mL (≈ 22 µM). Same read-out and setting: as for `COc1ccccc1Sc1occc1/C=C/[C@H]1C(C)=CC(=O)[C@H]2C(C)(C)CCC[C@]12C`, the figure is 11.82 µg/mL (≈ 27.1 µM); as for `CC1=CC(=O)[C@H]2C(C)(C)CCC[C@]2(C)[C@H]1/C=C/c1ccoc1Sc1cccc(Br)c1`, 12.23 µg/mL (≈ 25.2 µM). `CC1=CC(=O)[C@H]2C(C)(C)CCC[C@]2(C)[C@H]1/C=C/c1ccoc1Sc1ccccc1F` had an IC50 of 12.15 µg/mL (≈ 28.6 µM). `CC1=CC(=O)[C@H]2C(C)(C)CCC[C@]2(C)[C@H]1/C=C/c1ccoc1Sc1ccc(Cl)cc1`: the IC50 was found to be 9.7 µg/mL (≈ 22 µM). Regarding `CC1=CC(=O)[C@H]2C(C)(C)CCC[C@]2(C)[C@H]1/C=C/c1ccoc1Sc1cccc(F)c1`, the half-inhibitory concentration (IC50) turned out to be 9.7 µg/mL (≈ 22.8 µM). In the case of `CC1=CC(=O)[C@H]2C(C)(C)CCC[C@]2(C)[C@H]1/C=C/c1ccoc1Sc1ccccc1C`, the IC50 was determined as 9.7 µg/mL (≈ 23.1 µM). `CC1=CC(=O)[C@H]2C(C)(C)CCC[C@]2(C)[C@H]1/C=C/c1ccoc1Sc1ccc(Br)cc1`: the IC50 came out at 9.7 µg/mL (≈ 20 µM).

Turning to `CSc1ccc(Sc2occc2/C=C/[C@H]2C(C)=CC(=O)[C@H]3C(C)(C)CCC[C@]23C)cc1`, the 50% inhibitory concentration (IC50) came out at 9.7 µg/mL (≈ 21.4 µM). `CC1=CC(=O)[C@H]2C(C)(C)CCC[C@]2(C)[C@H]1/C=C/c1ccoc1Sc1ccc(F)cc1`: the IC50 came to 9.7 µg/mL (≈ 22.8 µM).

`CC1=CC(=O)[C@H]2C(C)(C)CCC[C@]2(C)[C@H]1/C=C/c1ccoc1SCc1ccccc1` gave a concentration for half-maximal inhibition (IC50) of 13.34 µg/mL (≈ 31.7 µM). This IC50 and that of the compound before are within 1.5-fold of each other.

In turn, `CC1=CC(=O)[C@H]2C(C)(C)CCC[C@]2(C)[C@H]1/C=C/c1ccoc1Sc1cccc(Cl)c1` came in with an IC50 of 9.7 µg/mL (≈ 22 µM).

Consider `CC1=CC(=O)[C@H]2C(C)(C)CCC[C@]2(C)[C@H]1/C=C/c1ccoc1Sc1ccc(Cl)cc1Cl`, for which the IC50 is 9.7 µg/mL (≈ 20.4 µM).

Another test concerns Staphylococcus aureus. The test can be described thus: Antibacterial activity against Staphylococcus aureus MTCC 96 assessed as zone of inhibition preincubated for 2 to 3 hrs followed by 12 to 24 hrs incubation at aerobic condition by well diffusion method. It is filed as functional. The settings on record: time 14-27 hrs. A general note: Agar diffusion results depend on both activity and mobility in agar.
In the case of `CC1=CC(=O)[C@H]2C(C)(C)CCC[C@]2(C)[C@H]1/C=C/c1ccoc1Sc1cccc(Cl)c1`, the “inhibition zone (IZ)” value is on record as 6 mm.

Broadly, the IC50 is the concentration needed to halve the response being measured. High values mean weaker potency in that assay, low ones greater potency in that assay.
